{
  "source": "patent US7824850B2",
  "about": "“Methods of protein destabilization and uses thereof” (Aurora Biosciences Corporation, priority 2000, dated 2010)",
  "key": {"[1]": {"system": "proteasome", "test": "TNT in vitro synthesis of multiUb-Bla fusions with or without proteasome inhibitor", "conditions": "50 μM; β-lactamase fusions containing 2, 3 or 4 copies of ubiquitinG76V", "description": "S-Labeled multimerized destabilization domain-β-lactamase fusion protein molecules were produced using a coupled in vitro transcription/translation system based on a rabbit reticulocyte lysate (TNT T7 Quick; Promega)."}, "[2]": {"system": "HRV14 2A protease", "test": "HRV 2A protease cell-based assay, Jurkat clone expressing 3XUb-HRV14-Bla", "set-up": "species or system human rhinovirus 14", "conditions": "compound 1 μM, 4 hours, cycloheximide 30 minutes", "experimental": "(§1) To assay HRV 2A protease activity, the selected Jurkat stable cell clones were treated for 16 hours with […] clavulanate to inactivate pre-existing cleaved and uncleaved HRV 2A-Bla fusion protein. Cells were then washed twice with PBS, resuspended at 100,000 cells/well in 100 μl RPMI+10% FBS in 96-well plates. The cells were incubated at 37° C. for 4 hours in the presence or absence of an inhibitor of the 2A protease. Cells were treated with 100 μg/ml cycloheximide for 30 minutes at 37° C., loaded with CCF2-AM for 2 hours at room temperature and read on the CytoFluor plate reader as described in Example 8. Inhibitor compounds, radicicol and geldanamycin, were used for the validation of the HRV protease cell-based assay. […] Compounds were tested at 1 μM for their ability to inhibit the HRV 2A protease cell-based assay using clones expressing HRV16 and HRV14 2A protease reporters."}, "[3]": {"system": "HRV16 2A protease", "test": "HRV 2A protease cell-based assay, Jurkat clone expressing 3XUb-HRV16-Bla", "set-up": "species or system human rhinovirus 16", "conditions": "compound 1 μM, 4 hours, cycloheximide 30 minutes", "experimental": "as §1"}, "[4]": {"biological_target": "T1, β-lactamase (Escherichia coli, UniProt P62593)", "T1 construct": "wild-type (cleavable) ubiquitin (N, cleaved yes); expressed in transfected cells; host or cells: Jurkat", "T1 sequence (P62593 24-286 limits assumed)": "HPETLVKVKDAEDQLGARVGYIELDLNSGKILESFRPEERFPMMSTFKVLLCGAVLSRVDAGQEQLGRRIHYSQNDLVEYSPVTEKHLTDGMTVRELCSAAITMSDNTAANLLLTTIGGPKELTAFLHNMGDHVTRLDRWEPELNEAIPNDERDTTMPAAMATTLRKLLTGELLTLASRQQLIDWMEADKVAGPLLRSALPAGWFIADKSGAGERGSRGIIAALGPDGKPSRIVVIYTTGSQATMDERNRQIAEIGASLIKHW", "test": "Control: β-lactamase activity in Jurkat cells expressing wild-type β-lactamase", "assay_type": "cell-based", "conditions": "data not shown"}, "[5]": {"system": "proteasome", "test": "In vitro degradation of 2XUb-Bla in chase lysate with inhibitors", "conditions": "20 minutes at 37° C."}, "[6]": {"system": "group II caspases", "test": "Caspase activity assay in Jurkat clones expressing 2XUb-DEVD-Bla or 2XUb-DEVA-Bla (CCF2-AM, 460/530 ratio)", "assay_type": "cell-based, human"}, "[7]": {"biological_target": "T2, proteasome (Homo sapiens, UniProt P28074)", "T2 sequence (P28074 60-263)": "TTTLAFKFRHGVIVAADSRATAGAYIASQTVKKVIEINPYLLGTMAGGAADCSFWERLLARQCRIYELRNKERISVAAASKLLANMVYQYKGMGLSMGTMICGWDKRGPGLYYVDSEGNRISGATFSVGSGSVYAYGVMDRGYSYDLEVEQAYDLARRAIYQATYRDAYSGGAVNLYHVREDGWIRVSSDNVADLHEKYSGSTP", "T2 sequence (P28072 35-239 partner)": "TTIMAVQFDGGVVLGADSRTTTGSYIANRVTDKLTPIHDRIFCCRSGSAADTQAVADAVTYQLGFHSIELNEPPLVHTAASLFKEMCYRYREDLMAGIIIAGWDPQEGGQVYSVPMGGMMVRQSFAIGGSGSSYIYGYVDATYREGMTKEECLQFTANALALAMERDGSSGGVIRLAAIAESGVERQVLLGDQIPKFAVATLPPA", "T2 sequence (Q99436 44-277 partner)": "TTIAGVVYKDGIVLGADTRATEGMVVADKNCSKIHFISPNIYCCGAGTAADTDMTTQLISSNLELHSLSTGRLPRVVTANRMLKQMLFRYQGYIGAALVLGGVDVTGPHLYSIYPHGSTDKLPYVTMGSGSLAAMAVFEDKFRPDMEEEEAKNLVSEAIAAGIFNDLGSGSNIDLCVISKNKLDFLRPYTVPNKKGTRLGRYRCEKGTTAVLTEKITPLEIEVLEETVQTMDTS", "conditions": "read-out: IC50 inhibition of decay of β-lactamase activity; Jurkat cells expressing 2XUb-Bla, 30 minutes preincubation, cycloheximide 1 hour", "protocol": "The cells were loaded with CCF2-AM to measure β-lactamase activity as described above.\nAfter 1 hour at 37° C., the cells were cooled to room temperature and then loaded with 1 μM CCF2-AM and β-lactamase activity quantified using a CytoFluor plate reader. The background-subtracted emission values at 460 nm and 530 nm were expressed as a 460/530 ratio and dose-response curves were plotted."}, "[8]": {"conditions": "overnight treatment of Jurkat cells; cited from earlier work"}},
  "note": "Where a SMILES comes first, the peptide text is derived from it. [ ]: non-standard residue; d: D form. The star is where a group is joined. Nle = CCCC[C@H](N)C(=O)O; Cbz = O=C(OCc1ccccc1)*; CH2F = FC*",
  "data": [
    {"smiles": "CC(C)C[C@@H](C=O)NC(=O)[C@H](CC(C)C)NC(=O)[C@H](CC(C)C)NC(=O)OCc1ccccc1", "note": "[MG132] (Cbz-Leu-Leu-Leu-aldehyde)", "values": [
      {"measurement": "effect on amount of fusion protein synthesized", "setting": "[1]", "value": "dramatic increase in the amount of fusion protein synthesized"}
    ]},
    {"smiles": "C[C@@H]1C[C@H]2O[C@@H]2/C=C\\C=C\\C(=O)Cc2c(Cl)c(O)cc(O)c2C(=O)O1", "note": "[radicicol]", "values": [
      {"measurement": "460/530 nm ratio", "setting": "[2]", "value": 0.152},
      {"measurement": "460/530 nm ratio", "setting": "[3]", "value": 0.229},
      {"measurement": "inhibition of β-lactamase activity (control)", "setting": "[4]", "value": "did not inhibit β-lactamase activity"}
    ]},
    {"smiles": "COC1=C2C[C@@H](C)C[C@H](OC)[C@H](O)[C@@H](C)/C=C(\\C)[C@H](OC(N)=O)[C@@H](OC)/C=C\\C=C(/C)C(=O)NC(=CC1=O)C2=O", "note": "[geldanamycin]", "values": [
      {"measurement": "460/530 nm ratio", "setting": "[2]", "value": 0.153},
      {"measurement": "460/530 nm ratio", "setting": "[3]", "value": 0.239}
    ]},
    {"smiles": "CC(=O)N[C@@H](CSC(=O)[C@]1([C@@H](O)C(C)C)NC(=O)[C@H](C)[C@@H]1O)C(=O)O", "note": "[lactacystin]", "values": [
      {"measurement": "effect on degradation of 2XUb-Bla in vitro", "setting": "[5]; 10 μM", "value": "stabilized the 2XUb-Bla fusion protein"}
    ]},
    {"smiles": "COC(=O)C[C@H](NC(=O)[C@H](C)NC(=O)[C@@H](NC(=O)OCc1ccccc1)C(C)C)C(=O)CF", "note": "[Z-VAD-fmk] (Cbz-Val-Ala-Asp(OMe)-CH2F)", "values": [
      {"measurement": "effect on stabilization of DEVD-Bla reporters", "setting": "[6]; 10 μM coincident with anti-Fas addition", "value": "blocked the stabilization of DEVD-Bla reporters"},
      {"measurement": "IC50", "setting": "[6]; Jurkat cells expressing 2XUb-DEVD-Bla, 50 ng/ml anti-Fas IgM, read-out: IC50 inhibition of anti-Fas induced caspase activity", "value": 5, "unit": "µM"}
    ]},
    {"smiles": "CCCC[C@@H](C=O)NC(=O)[C@H](CC(C)C)NC(=O)[C@H](CC(C)C)NC(C)=O", "note": "[Ac-LLN] (Ac-Leu-Leu-[Nle]-aldehyde)", "values": [
      {"measurement": "IC50", "setting": "[7]", "value": 13, "unit": "µM"},
      {"measurement": "effect on degradation of 2XUb-Bla in vitro", "setting": "[5]; 50 μM", "value": "stabilized the 2XUb-Bla fusion protein"}
    ]},
    {"smiles": "O=C(O)[C@H]1/C(=C/CO)O[C@@H]2CC(=O)N21", "note": "[Clavulanate, clavulanate]", "values": [
      {"measurement": "effect on β-lactamase levels", "setting": "[8]", "value": "reduces β-lactamase levels to background"}
    ]}
  ]
}
